Source: PubChem BioAssay (NCI)
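Five compound concentrations were applied to cells in 96-well plates for 48 hours; endpoints were derived by simple linear interpolation of the resulting dose-response curve. Here, GI50 denotes the concentration required for 50% inhibition of growth. TGI: total growth inhibition.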

Assays:
Experiment in all cases: inhibition of tumour cell growth, NCI panel, 48 h
ACHN renal = test system: ACHN renal
HT29 colon = test system: HT29 colon
OVCAR-3 ovarian = test system: OVCAR-3 ovarian
RXF 393 renal = test system: RXF 393 renal
SR leukemia = test system: SR leukemia
MDA-N = test system: MDA-N
SF-539 CNS = test system: SF-539 CNS
SK-MEL-2 melanoma = test system: SK-MEL-2 melanoma
K-562 leukemia = test system: K-562 leukemia
T-47D breast = test system: T-47D breast

SMILES | TGI (ACHN renal) [µM] | TGI (HT29 colon) [µM] | TGI (OVCAR-3 ovarian) [µM] | TGI (RXF 393 renal) [µM] | TGI (SR leukemia) [µM] | TGI (MDA-N) [µM] | TGI (SF-539 CNS) [µM] | TGI (SK-MEL-2 melanoma) [µM] | TGI (K-562 leukemia) [µM] | GI50 (ACHN renal) [µM] | GI50 (SR leukemia) [µM] | GI50 (T-47D breast) [µM] | TGI (T-47D breast) [µM] | GI50 (HT29 colon) [µM] | GI50 (SF-539 CNS) [µM] | GI50 (OVCAR-3 ovarian) [µM] | GI50 (SK-MEL-2 melanoma) [µM] | GI50 (K-562 leukemia) [µM] | GI50 (RXF 393 renal) [µM]
COC(=O)C1CCC(=O)N1C(=O)Cc1ccc(OC)cc1 (configuration not stated) | > 100 | > 100 | > 100 | – | – | – | – | – | – | – | – | – | – | – | – | – | – | – | –
N/N=C1/C2CN3CCN(C2)CC1(c1ccc([N+](=O)[O-])cc1)C3 | > 100 | > 100 | > 100 | > 100 | > 100 | > 100 | > 100 | > 100 | > 100 | – | – | – | – | – | – | – | – | – | –
Clc1ccc(N2N=C(c3cccc(Nc4ccncc4)c3)CC2c2ccc3c(c2)OCO3)cc1 (configuration not stated) | 3.13 | 6.55 | 3.07 | – | 4.76 | – | 3.38 | 4.59 | 5.39 | 1.65 | 2 | 2.13 | 5.07 | 2.44 | 1.79 | 1.63 | 2.09 | 2.09 | –
COC(=O)[C@H]1[C@@H](C(C)C)O[C@@H](C(C)C)O[C@H]1C(F)(F)F | > 100 | > 100 | > 100 | > 100 | > 100 | > 100 | > 100 | – | > 100 | – | – | – | > 100 | – | – | – | – | – | –
Cc1cc(O)c(C(C)C)cc1SC#N | 30.1 | – | 28.8 | 29.1 | – | – | 37.1 | 35.7 | 55 | – | – | – | 65 | – | – | – | – | – | –
N#CC(C#N)=C1C(C#N)=C(N)NC12OCCO2 | > 100 | > 100 | – | > 100 | > 100 | > 100 | – | > 100 | > 100 | – | – | – | > 100 | – | – | – | – | – | –
Cc1ccc(S(=O)(=O)NNC(=O)c2cc(C)ccc2NC(=O)C23CC4CC(CC(C4)C2)C3)cc1 | 44.1 | > 100 | > 100 | 78 | > 100 | > 100 | > 100 | – | > 100 | – | – | – | > 100 | – | – | – | – | – | –
CN(C)c1nc(N(C)C)nc(N(C)C23CC4CC(CC(C4)C2)C3)n1 | > 100 | – | > 100 | 67.9 | > 100 | 53.7 | > 100 | 55.5 | > 100 | – | – | – | > 100 | – | – | – | – | – | –
COc1ccc2c(c1)C(N)=C(c1ccccc1)C2=O | > 100 | > 100 | > 100 | – | > 100 | > 100 | > 100 | > 100 | – | – | – | – | > 100 | – | – | – | – | – | –
Clc1ccc(Cc2nc3ccccc3nc2-c2cccc(Br)c2)cc1 | 3.44 | 6.13 | 5.76 | 6.26 | – | 4.19 | 5.23 | 17.8 | 8.46 | – | – | – | 4.54 | – | – | – | – | – | –
CO/C(=N\N=C\c1cccc(Cl)c1)c1ccncc1 | > 10 | > 10 | > 10 | > 10 | > 10 | > 10 | – | > 10 | > 10 | – | – | – | > 10 | – | – | – | – | – | –
Cc1ccc(C(C)(C)C[P+](C)(c2ccccc2)c2ccccc2)cc1 | – | 43.8 | 22.2 | > 94.1 | – | – | > 100 | 19.7 | 46 | – | – | – | – | – | – | – | – | – | –
CC(=O)O[C@@H]1C[C@@]23C[C@@]24CC[C@H](OC2OCC(O)C(O)C2O)C(C)(C)[C@@H]4CC=C3[C@]2(C)C[C@@H]3OC4(C[C@@H](C)[C@@H]3[C@@]12C)OC(O)[C@@]1(C)O[C@@H]41 (some centres not stated) | > 100 | > 100 | 34.5 | 37.1 | – | > 100 | 41.4 | 40.7 | > 100 | – | – | – | 97.7 | – | – | – | – | – | –
C=C(CCC(C)C1CCC2C3=C(C(=O)CC21C)C1(C)CCC(=O)[C@@H](C)C1CC3=O)C(C)C(=O)O (some centres not stated) | 88.6 | > 100 | > 100 | 57.4 | 74.8 | – | > 100 | > 100 | 35.2 | – | – | – | > 100 | – | – | – | – | – | –
O=C(/C(=C\C(=O)c1cccs1)c1ccsc1)c1ccc(Br)cc1 | > 100 | > 100 | – | – | > 100 | > 100 | > 100 | > 100 | > 100 | – | – | – | > 100 | – | – | – | – | – | –
Cc1cc(/C=C\c2ccc3ccccc3[n+]2C)c(O)c2ncccc12 | 2.15 | 21.7 | 0.569 | 6.03 | > 100 | – | 0.909 | > 100 | > 100 | 0.584 | 0.168 | 0.835 | 5.68 | 0.218 | 0.202 | 0.176 | 3.03 | 0.169 | 1.55
O=CC(O)C(O)C(O)C(O)C(=O)NCCCCCCCCCCCCNC(=O)C(O)C(O)C(O)C(O)C=O (configuration not stated) | > 100 | > 100 | > 100 | > 100 | > 100 | > 100 | > 100 | > 100 | – | – | – | – | > 100 | – | – | – | – | – | –
COc1nc(N(C)C)nc2c1n(C)c[n+]2C | > 100 | > 100 | > 100 | > 100 | – | > 100 | > 100 | > 100 | > 100 | – | – | – | > 100 | – | – | – | – | – | –
COc1cc2nc(-c3ccc4ccccc4c3)[nH]c(=O)c2cc1OC | > 100 | > 100 | > 100 | > 100 | > 100 | > 100 | – | > 100 | > 100 | – | – | – | > 100 | – | – | – | – | – | –
C/C=C\C(CC(=O)NCCc1cn(C(=O)OCc2ccccc2)c2ccccc12)CC(=O)OC (configuration not stated) | > 100 | > 100 | > 100 | > 100 | – | > 100 | – | > 100 | > 100 | – | – | – | – | – | – | – | – | – | –
O=C(CSCC(=O)N/N=C/c1cccs1)N/N=C/c1cccs1 | > 100 | > 100 | > 100 | > 100 | – | – | > 100 | > 100 | > 100 | – | – | – | > 100 | – | – | – | – | – | –
CC[N+](C)(CC)CCC(O)(c1ccccc1)c1ccccc1 | > 100 | > 100 | > 100 | > 100 | > 100 | > 100 | – | > 100 | > 100 | – | – | – | > 100 | – | – | – | – | – | –
